*1 amine or outer side, *2 acyl side, *3 side chain or, on linkers, in order; H or OH if unused. Where a SMILES comes first, the peptide text is derived from it. Bridges are numbered along the chain shown (N, C = ends). Roman numbers before positions name the chains, in order. [ ]: non-standard residue; d: D form. Actinocin(9to1) = Cc1c2oc3c(C)ccc(C(=O)[*:1])c3nc-2c(C(=O)[*:2])c(N)c1=O; NMeV = CN[C@H](C(=O)O)C(C)C; Sar = CNCC(=O)O
Assays:
[1] = tested on: nuclear β-catenin in C2C12 cells; assay: cells; type: cell-based; details: for WntCondMedia_bCatenin C2C12 IC50/EC50: assay number 5
[2] = tested on: alkaline phosphatase (ALP) activity in C2C12 cells; type: cell-based; details: concentration response; for WntCondMedia_Alk Phos C2C12 IC50/EC50: assay number 6
[3] = tested on: endothelial tube formation in co-cultures of ECFCs and ADSCs treated with VEGF; assay: cells; type: cell-based, human
[4] = tested on: HeLa cells; assay: cells; type: cell-based; details: for Hela CellCycMod PI 4N IC50/EC50: assay number 16; for Hela CellCycMod PI MI IC50/EC50: assay number 17; for Hela CellCycMod PI Cell Number IC50/EC50: assay number 18; for Hela CellCycMod PI 2N IC50/EC50: assay number 14; for Hela CellCycMod PI S Phase IC50/EC50: assay number 15
[5] = tested on: ECFC/ADSC co-culture cell nuclei number
[6] = tested on: DLD-1; assay: cells; type: cell-based; details: basal
[7] = tested on: SW480; assay: cells; type: cell-based; details: basal
[8] = tested on: HCT116 cells treated with a GSK3β inhibitor; assay: cells; type: cell-based; details: GSK3b inhibitor pretreated
[9] = tested on: Colo320; assay: cells; type: cell-based; details: basal
[10] = tested on: RKO; assay: cells; type: cell-based; details: assay number 29; basal
[11] = tested on: INS-1E cells; assay: cells; type: cell-based, rat;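 as to 5mMGluc INS1E SecretionMod IC50/EC50: secreted insulin quantified by homogeneous immunoassay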
[12] = tested on: NCI-H716 cells; assay: cells; type: cell-based, Human
[13] = tested on: STC-1 cell line; type: cell-based, mouse
[14] = molecular target: T1, hp70S6K1 (RPS6KB1) (Homo sapiens, UniProt P23443); assay: Cerep LANCE kinase assay hp70S6K1 (S1 assay 31); type: biochemical
T1 construct: purchased Cerep (LANCE kinase assay platform, contract assay)

[15] = molecular target: T2, hKDR (Homo sapiens, UniProt P35968); assay: Cerep LANCE kinase assay hKDR (S1 assay 32); type: biochemical
T2 construct: purchased Cerep (LANCE kinase assay platform, contract assay)

[16] = molecular target: T3, hJAK2 (Homo sapiens, UniProt O60674); assay: Cerep LANCE kinase assay hJAK2 (S1 assay 33); type: biochemical
T3 construct: purchased Cerep (LANCE kinase assay platform, contract assay)

[17] = molecular target: T4, hGSK3b (Homo sapiens, UniProt P49841); assay: Cerep LANCE kinase assay hGSK3b (S1 assay 34); type: biochemical
T4 construct: purchased Cerep (LANCE kinase assay platform, contract assay)

[18] = molecular target: T5, hFLT3 (Homo sapiens, UniProt P36888); assay: Cerep LANCE kinase assay hFLT3 (S1 assay 35); type: biochemical
T5 construct: purchased Cerep (LANCE kinase assay platform, contract assay)

[19] = tested on: HCT116; assay: cells; type: cell-based; details: basal; read-out: Basal_Viability ATP HCT116
[20] = tested on: HT-29; assay: cells; type: cell-based; details: basal; read-out: Basal_Viability ATP HT-29
[21] = tested on: SNU-C1; assay: cells; type: cell-based; details: basal; read-out: Basal_Viability ATP SNU-C1

T2 sequence (P35968 20-1356): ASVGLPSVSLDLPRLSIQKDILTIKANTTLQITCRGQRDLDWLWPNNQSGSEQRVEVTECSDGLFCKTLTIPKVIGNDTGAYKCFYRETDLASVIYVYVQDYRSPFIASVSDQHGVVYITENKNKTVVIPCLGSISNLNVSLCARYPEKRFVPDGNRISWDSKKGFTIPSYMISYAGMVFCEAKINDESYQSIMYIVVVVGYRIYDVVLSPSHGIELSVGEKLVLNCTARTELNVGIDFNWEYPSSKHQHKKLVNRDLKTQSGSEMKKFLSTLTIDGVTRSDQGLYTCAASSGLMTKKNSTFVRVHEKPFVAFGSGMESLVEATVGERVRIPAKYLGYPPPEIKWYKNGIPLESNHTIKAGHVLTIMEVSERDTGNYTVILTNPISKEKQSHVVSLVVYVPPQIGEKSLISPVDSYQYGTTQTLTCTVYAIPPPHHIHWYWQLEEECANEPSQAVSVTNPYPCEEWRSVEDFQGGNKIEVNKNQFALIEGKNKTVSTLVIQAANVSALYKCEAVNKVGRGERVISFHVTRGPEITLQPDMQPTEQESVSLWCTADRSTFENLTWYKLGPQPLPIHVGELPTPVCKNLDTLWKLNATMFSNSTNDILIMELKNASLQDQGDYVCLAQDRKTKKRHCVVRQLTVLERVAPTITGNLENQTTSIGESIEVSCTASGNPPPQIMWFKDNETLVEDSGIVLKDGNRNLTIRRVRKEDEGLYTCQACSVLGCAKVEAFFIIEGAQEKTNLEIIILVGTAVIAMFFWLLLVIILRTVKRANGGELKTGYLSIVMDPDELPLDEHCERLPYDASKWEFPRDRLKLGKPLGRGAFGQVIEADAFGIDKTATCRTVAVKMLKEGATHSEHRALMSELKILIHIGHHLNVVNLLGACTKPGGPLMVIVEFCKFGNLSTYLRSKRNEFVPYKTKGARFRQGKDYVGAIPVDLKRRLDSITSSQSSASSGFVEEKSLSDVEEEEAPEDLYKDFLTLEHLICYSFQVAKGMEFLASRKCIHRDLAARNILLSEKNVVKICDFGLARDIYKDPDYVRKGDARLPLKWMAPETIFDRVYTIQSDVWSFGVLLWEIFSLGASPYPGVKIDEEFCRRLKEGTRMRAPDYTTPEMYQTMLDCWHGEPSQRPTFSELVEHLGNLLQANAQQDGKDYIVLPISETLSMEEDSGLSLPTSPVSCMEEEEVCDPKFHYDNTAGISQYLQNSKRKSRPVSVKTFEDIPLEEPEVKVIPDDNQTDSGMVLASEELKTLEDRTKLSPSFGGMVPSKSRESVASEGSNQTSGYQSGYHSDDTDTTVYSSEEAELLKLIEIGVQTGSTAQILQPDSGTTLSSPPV
T4 sequence (P49841 whole entry): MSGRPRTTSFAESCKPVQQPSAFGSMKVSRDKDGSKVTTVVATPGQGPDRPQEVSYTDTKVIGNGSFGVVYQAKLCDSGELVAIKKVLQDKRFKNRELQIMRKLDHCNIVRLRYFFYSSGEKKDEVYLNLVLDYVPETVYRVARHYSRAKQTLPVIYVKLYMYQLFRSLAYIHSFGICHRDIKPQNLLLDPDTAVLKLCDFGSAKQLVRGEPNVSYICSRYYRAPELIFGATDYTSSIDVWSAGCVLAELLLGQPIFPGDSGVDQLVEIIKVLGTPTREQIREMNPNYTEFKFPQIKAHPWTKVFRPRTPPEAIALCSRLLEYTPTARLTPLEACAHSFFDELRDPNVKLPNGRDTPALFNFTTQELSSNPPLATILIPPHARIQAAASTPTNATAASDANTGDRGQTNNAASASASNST
T3 sequence (O60674 whole entry): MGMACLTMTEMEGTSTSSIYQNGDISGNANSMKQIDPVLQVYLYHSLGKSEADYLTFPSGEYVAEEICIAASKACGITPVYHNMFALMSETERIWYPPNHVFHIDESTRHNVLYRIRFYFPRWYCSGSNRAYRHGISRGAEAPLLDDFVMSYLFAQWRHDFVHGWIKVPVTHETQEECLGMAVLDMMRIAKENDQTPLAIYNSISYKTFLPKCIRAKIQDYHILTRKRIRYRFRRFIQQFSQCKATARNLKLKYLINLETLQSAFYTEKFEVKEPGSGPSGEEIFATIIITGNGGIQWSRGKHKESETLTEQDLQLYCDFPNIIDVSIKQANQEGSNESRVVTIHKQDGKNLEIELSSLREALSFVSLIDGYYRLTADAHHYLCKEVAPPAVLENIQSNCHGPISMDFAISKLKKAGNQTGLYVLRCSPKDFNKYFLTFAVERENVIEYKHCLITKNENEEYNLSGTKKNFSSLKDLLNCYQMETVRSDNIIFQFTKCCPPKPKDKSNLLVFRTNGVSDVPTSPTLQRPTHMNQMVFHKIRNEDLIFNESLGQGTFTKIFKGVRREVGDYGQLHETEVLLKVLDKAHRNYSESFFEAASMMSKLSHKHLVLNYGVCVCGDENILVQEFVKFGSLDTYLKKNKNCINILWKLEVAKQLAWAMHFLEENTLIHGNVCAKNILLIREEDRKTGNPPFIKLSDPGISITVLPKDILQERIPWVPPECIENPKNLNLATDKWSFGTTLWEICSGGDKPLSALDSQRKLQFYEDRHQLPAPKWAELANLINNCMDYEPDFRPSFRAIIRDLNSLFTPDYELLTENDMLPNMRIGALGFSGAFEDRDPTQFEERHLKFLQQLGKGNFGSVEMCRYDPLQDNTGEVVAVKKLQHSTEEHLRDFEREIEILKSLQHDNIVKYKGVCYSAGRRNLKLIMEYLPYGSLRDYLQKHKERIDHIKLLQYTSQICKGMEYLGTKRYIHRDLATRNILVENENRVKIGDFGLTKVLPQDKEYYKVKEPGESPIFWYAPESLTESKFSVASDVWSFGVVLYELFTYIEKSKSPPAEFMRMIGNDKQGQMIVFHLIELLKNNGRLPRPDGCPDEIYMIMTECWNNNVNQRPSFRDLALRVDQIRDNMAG
T1 sequence (P23443 whole entry): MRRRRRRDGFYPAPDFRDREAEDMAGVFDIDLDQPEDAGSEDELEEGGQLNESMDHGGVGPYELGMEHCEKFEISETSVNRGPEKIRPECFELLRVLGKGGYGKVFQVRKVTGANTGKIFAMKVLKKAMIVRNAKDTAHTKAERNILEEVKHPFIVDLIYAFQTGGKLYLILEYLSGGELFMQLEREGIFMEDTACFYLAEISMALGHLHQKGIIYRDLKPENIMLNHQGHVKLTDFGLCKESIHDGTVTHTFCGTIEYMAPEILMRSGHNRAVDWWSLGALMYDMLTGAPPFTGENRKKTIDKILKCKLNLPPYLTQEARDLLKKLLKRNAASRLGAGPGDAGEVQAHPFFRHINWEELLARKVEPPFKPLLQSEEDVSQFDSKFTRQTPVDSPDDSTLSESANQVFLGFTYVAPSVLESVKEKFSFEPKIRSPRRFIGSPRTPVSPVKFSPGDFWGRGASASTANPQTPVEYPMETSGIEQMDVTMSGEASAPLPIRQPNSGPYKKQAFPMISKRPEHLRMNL
T5 sequence (P36888 27-993): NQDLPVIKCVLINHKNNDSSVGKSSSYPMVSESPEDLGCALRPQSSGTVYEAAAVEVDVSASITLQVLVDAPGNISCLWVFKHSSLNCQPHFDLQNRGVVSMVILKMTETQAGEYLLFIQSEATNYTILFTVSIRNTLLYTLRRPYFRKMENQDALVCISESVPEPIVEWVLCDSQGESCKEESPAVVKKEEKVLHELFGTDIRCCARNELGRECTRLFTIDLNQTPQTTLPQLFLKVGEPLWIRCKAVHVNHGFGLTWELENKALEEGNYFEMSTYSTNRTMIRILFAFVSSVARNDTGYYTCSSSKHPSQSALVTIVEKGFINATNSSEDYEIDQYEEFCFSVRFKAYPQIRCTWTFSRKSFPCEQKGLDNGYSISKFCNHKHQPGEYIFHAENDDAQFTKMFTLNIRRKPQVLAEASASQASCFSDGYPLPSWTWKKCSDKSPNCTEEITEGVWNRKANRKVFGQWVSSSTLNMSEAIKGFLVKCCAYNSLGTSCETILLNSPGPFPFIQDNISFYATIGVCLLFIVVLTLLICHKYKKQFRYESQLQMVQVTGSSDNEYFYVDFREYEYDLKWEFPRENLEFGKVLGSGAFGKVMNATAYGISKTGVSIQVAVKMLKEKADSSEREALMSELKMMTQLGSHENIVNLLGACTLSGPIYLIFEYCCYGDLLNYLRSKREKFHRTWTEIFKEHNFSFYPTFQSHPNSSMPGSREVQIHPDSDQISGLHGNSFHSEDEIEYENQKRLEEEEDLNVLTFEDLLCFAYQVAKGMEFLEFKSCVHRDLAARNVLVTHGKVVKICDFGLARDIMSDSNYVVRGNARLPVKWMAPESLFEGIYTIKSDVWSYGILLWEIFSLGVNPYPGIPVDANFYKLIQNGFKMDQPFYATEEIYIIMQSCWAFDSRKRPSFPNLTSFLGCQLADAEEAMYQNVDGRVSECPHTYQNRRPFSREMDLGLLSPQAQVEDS

Structure (SMILES)	WntCondMedia_bCatenin C2C12 IC50/EC50 ([1]; concentration response) [µM]	WntCondMedia_Alk Phos C2C12 IC50/EC50 [2] [µM]	VEGF_ADSC\ECFC Angio CD31 TubeArea IC50/EC50 [3] [µM]	Hela CellCycMod PI 4N IC50/EC50 ([4]; 4N) [µM]	Hela CellCycMod PI MI IC50/EC50 ([4]; MI) [µM]	Hela CellCycMod PI Cell Number IC50/EC50 [4] [µM]	VEGF_ADSC\ECFC Angio Hoechst NucArea IC50/EC50 [5] [µM]	Hela CellCycMod PI 2N IC50/EC50 ([4]; 2N) [µM]	other results
CCCCCCCCCCCCCCC[C@H](O)[C@@H](N)CO [NCGC00015362-05]	> 20	> 20							
O.O.O.O.O=C1OC2(c3cc(Br)c([O-])cc3Oc3c2cc(Br)c([O-])[c]3[Hg])c2ccccc21.[Na+].[Na+] (stereo not shown) [NCGC00262588-02]	16.8578	> 20							
CCCCc1ccc2nc(NC(=O)OC)[nH]c2c1 [NCGC00016706-07]									IC50/EC50, VEGF_ADSC\ECFC Angio CD31 TubeArea (assay number 2) [3]: 0.053 µM; IC50/EC50, WntCondMedia_bCatenin C2C12 (assay number 5) ([1]; concentration response): 0.0336 µM; IC50/EC50, WntCondMedia_Alk Phos C2C12 (assay number 6) [2]: 0.0682 µM; IC50/EC50, Hela CellCycMod PI 2N (assay number 14) ([4]; 2N): 0.0104 µM; IC50/EC50, Hela CellCycMod PI 4N (assay number 16) ([4]; 4N): 0.01062 µM; IC50/EC50, Hela CellCycMod PI Cell Number (assay number 18) ([4]; Cell Number): 0.00566 µM; IC50/EC50, Hela CellCycMod PI MI (assay number 17) ([4]; MI): 0.00717 µM; IC50/EC50, Hela CellCycMod PI S Phase (assay number 15) ([4]; S Phase): > 10 µM; IC50/EC50, VEGF_ADSC\ECFC Angio Hoechst NucArea (assay number 3) [5]: > 10 µM
COc1cccc2c1C(=O)c1c(O)c3c(c(O)c1C2=O)C[C@@](O)(C(=O)CO)CC3OC1CC(N2CCOC(OC)C2)C(O)C(C)O1 (stereo partly shown) [NCGC00319019-01]	0.0135	> 20	0.003	> 10	0.01176	0.00468	0.04422		Basal_Viability ATP DLD-1 IC50/EC50 ([6]; assay number 23): 0.001 µM; Basal_Viability ATP SW480 IC50/EC50 ([7]; assay number 24): 0.001 µM; GSK3b inh pretreated_Viability ATP HCT116 IC50/EC50 ([8]; assay number 26): 0.001 µM; Basal_Viability ATP Colo 320 IC50/EC50 ([9]; assay number 27): 0.001 µM; Basal_Viability ATP RKO IC50/EC50 [10]: 0.001 µM
Cc1cc(CC(C)CC(C)(C)C)n(O)c(=O)c1 (stereo not shown) [NCGC00167586-03]	0.5913	> 20		> 10	> 10	0.1332		> 10	Hela CellCycMod PI S Phase IC50/EC50 [4]: > 10 µM
COc1cc([C@@H]2c3cc4c(cc3[C@@H](O[C@@H]3O[C@@H]5CO[C@@H](C)O[C@@H]5[C@H](O)[C@@H]3O)[C@H]3COC(=O)[C@H]23)OCO4)cc(OC)c1O [NCGC00179504-05]	> 20	> 20	0.1091				0.9666		
C=CC(=O)Nc1cc2c(Nc3ccc(F)c(Cl)c3)ncnc2cc1OCCCN1CCOCC1 [NCGC00182713-01]	1.0017	9.4628		> 10	4.2934	2.0936		8.8729	Hela CellCycMod PI S Phase IC50/EC50 [4]: > 10 µM
CCCCCCCCCCCCNCCNCCNCC(=O)O [NCGC00274269-01]	> 20	> 20	6.0404	> 10	> 10	> 10	> 10	> 10	Hela CellCycMod PI S Phase IC50/EC50 [4]: > 10 µM
CCCCCCCCCCCCCC[N+](C)(C)Cc1ccccc1 [NCGC00187943-02]	> 20	> 20	3.0091				8.357		
CCCCCCCCCCOCC(O)CN (stereo not shown) [NCGC00166070-02]	> 20	> 20	6.5465	> 10	> 10	> 10	> 10	> 10	Hela CellCycMod PI S Phase IC50/EC50 [4]: > 10 µM
CCCCCCCCCCCCCCCCCCNC(=O)OC1CCN(C(=O)OC[C@H](COC(=O)N(Cc2cccc[n+]2CC)C(=O)c2ccccc2OC)OC)CC1.[Cl-] [NCGC00183020-01]			1.4957	> 10	> 10	6.1389	> 10	> 10	5mMGluc_INS1E SecretionMod IC50/EC50 ([11]; assay number 8, 5 mM glucose): 21.7337 µM; hNCI-H716 GLP1 Secretion IC50/EC50 ([12]; assay number 12): 9.522 µM; mSTC-1 GLP1 Secretion IC50/EC50 ([13]; assay number 13): 13.8183 µM; hp70S6K1 LANCE IC50/EC50 ([14]; assay number 31): > 20 µM; hKDR LANCE IC50/EC50 ([15]; assay number 32): > 20 µM; hJAK2 LANCE IC50/EC50 ([16]; assay number 33): > 20 µM; hGSK3b LANCE IC50/EC50 ([17]; assay number 34): > 20 µM; hFLT3 LANCE IC50/EC50 ([18]; assay number 35): > 20 µM
CN1CC[C@H](c2c(O)cc(O)c3c(=O)cc(-c4ccccc4Cl)oc23)[C@H](O)C1.Cl [NCGC00250401-02]	0.1905	0.4611	0.1138	> 10	0.0807	0.0212	0.3284	> 10	
Cc1ccc([N+](=O)[O-])[c]2c1[O][Hg]2 [nitromersol, reference compound]									IC50 ([3]; IC50 / EC50, endothelial tube area, ADSC/ECFC co-culture, read-out: Anti-Angiogenesis): 0.668 µM; EC50 ([1]; IC50 / EC50, C2C12 beta-catenin translocation, read-out: Wnt Pathway): 0.155 µM; EC50 ([11]; IC50 / EC50, INS-1E, read-out: Insulin Secretion): > 20 µM; activity in NCI-H716 GLP-1 secretion assay (in words) [12]: potent actives; EC50 ([12]; IC50 / EC50, NCI-H716, read-out: GLP 1 Secretion): 0.0972 µM; activity in STC-1 GLP-1 secretion assay (in words) [13]: potent actives; EC50 ([4]; IC50 / EC50, HeLa, read-out: CellCycle G2/M): > 10 µM; IC50 ([6]; read-out: Basal_Viability ATP DLD-1): 1.62 µM; IC50 ([7]; read-out: Basal_Viability ATP SW480): 1.13 µM; IC50 [19]: 2.83 µM; IC50 ([8]; read-out: GSK3b inh pretreated_Viability ATP HCT116): > 20 µM; IC50 ([9]; read-out: Basal_Viability ATP Colo 320): 0.935 µM; IC50 [20]: 1.44 µM; IC50 [21]: 0.202 µM; IC50 ([14]; read-out: p70S6K1): > 20 µM; IC50 ([15]; read-out: KDR): 16.8 µM; IC50 ([16]; read-out: JAK2): > 20 µM; IC50 ([17]; read-out: GSK3b): 8.37 µM; IC50 ([18]; read-out: FLT3): 10.4 µM
CN[C@@H]1C[C@@H](c2ccc(Cl)c(Cl)c2)c2ccccc21 [NCGC00025223-04]	> 20	> 20	> 10				> 10		
Cc1c2oc3c(C)ccc(C(=O)N[C@@H]4C(=O)N[C@H](C(C)C)C(=O)N5CCC[C@H]5C(=O)N(C)CC(=O)N(C)[C@@H](C(C)C)C(=O)O[C@@H]4C)c3nc-2c(C(=O)N[C@@H]2C(=O)N[C@H](C(C)C)C(=O)N3CCC[C@H]3C(=O)N(C)CC(=O)N(C)[C@@H](C(C)C)C(=O)O[C@@H]2C)c(N)c1=O [NCGC00271789-02] (I: T[dV]P[Sar][NMeV] / II: T[dV]P[Sar][NMeV]; ester I:1-I:C, II:1-II:C; linker I:N-II:N via Actinocin(9to1))	0.037	0.0015	0.001				0.04031		
Cc1nc(Nc2ncc(C(=O)Nc3c(C)cccc3Cl)s2)cc(N2CCN(CCO)CC2)n1 [NCGC00181129-06]	0.1044	0.0067	> 10	> 10	> 10	0.8748	> 10	> 10	
Clc1cc(Cl)c(OCC#CI)cc1Cl [NCGC00181134-02]	> 20	> 20	> 10				> 10		
Cl.O[C@@H](c1cc(C(F)(F)F)nc2c(C(F)(F)F)cccc12)[C@H]1CCCCN1 [NCGC00161831-04]	> 20	> 20	> 10				8.609		

Source: PMC4503722, “Novel Phenotypic Outcomes Identified for a Public Collection of Approved Drugs from a Publicly Accessible Panel of Assays” (PLoS ONE, 2015)
